Measurements reported in patent EP1090023B1 (GLAXO GROUP LIMITED, priority 1998, dated 1999).

Tests used:
Assay type in all cases: cell-based
adenosine 2a = adenosine 2a (Homo sapiens, UniProt P29274); assay: Agonist activity against adenosine receptor subtypes, CHO cells with cAMP response element/SPAP reporter (basal cAMP); conditions: ratio to EC50 of NECA; transfected CHO cells; effect on basal cAMP via SPAP
Protocol: (§1) Compounds of the invention were tested for in vitro and in vivo biological activity in accordance with the following screens: • (1) Agonist activity against adenosine 2a, adenosine 1 and adenosine 3 receptor subtypes.
(§2) Agonist selectivity of compounds against other human adenosine receptors was determined using Chinese hamster ovary (CHO) cells transfected with the gene for the relevant human adenosine receptor following a method based on that of Castanon and Spevak, 1994 . The CHO cells were also transfected with cyclic AMP response elements promoting the gene for secreted placental alkaline phosphatase (SPAP) (Wood, 1995). The effect of test compounds was determined by their effects on basal levels of cAMP (A2a) or on forskolin-enhanced cAMP (A1 and A3) as reflected by changes in levels of SPAP. EC50 values for compounds were then determined as a ratio to that of the non-selective agonist N-ethyl carboxamide adenosine (NECA).

adenosine 3 = molecular target: T1, adenosine 3 (Homo sapiens, UniProt P0DMS8); assay: Agonist activity against adenosine receptor subtypes, CHO cells with cAMP response element/SPAP reporter (forskolin-enhanced cAMP); conditions: ratio to EC50 of NECA; transfected CHO cells; effect on forskolin-enhanced cAMP via SPAP
T1 sequence (P0DMS8 1-318): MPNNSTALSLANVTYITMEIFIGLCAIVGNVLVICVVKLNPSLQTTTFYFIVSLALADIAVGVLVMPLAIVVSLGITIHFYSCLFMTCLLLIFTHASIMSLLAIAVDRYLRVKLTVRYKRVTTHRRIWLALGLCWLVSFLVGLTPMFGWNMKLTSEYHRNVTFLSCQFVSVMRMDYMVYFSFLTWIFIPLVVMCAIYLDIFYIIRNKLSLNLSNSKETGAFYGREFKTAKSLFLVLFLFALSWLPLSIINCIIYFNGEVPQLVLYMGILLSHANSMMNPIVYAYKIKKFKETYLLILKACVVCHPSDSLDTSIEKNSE
Protocol: as §1, §2

adenosine 1 = molecular target: T2, adenosine 1 (Homo sapiens, UniProt P30542); assay: as above; conditions: ratio to EC50 of NECA; transfected CHO cells; effect on forskolin-enhanced cAMP via SPAP
T2 sequence (P30542 1-326): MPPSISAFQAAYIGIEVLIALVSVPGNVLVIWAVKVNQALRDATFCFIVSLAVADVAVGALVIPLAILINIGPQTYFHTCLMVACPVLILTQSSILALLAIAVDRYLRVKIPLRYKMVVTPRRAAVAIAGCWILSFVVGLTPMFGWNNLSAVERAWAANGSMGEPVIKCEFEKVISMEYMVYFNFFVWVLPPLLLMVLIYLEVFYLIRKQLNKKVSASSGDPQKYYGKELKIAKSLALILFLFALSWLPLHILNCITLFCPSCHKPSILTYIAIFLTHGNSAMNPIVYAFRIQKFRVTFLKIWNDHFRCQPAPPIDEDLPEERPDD
Protocol: as §1, §2

Sequence of adenosine 2a (P29274 whole entry): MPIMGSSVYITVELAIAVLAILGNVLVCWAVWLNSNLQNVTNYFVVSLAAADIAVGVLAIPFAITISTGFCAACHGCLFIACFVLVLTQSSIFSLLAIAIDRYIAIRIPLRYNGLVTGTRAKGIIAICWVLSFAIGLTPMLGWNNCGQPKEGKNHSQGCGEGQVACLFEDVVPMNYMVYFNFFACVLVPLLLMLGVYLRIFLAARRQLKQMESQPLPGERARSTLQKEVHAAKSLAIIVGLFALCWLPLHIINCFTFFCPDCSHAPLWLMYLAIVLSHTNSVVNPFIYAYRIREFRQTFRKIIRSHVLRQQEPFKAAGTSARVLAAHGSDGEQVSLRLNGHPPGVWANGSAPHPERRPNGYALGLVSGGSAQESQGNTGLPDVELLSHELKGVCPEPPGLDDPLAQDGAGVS

Structure (SMILES)	A2a (EC50 values as a ratio of that of NECA) (adenosine 2a)	A3 (EC50 values as a ratio of that of NECA) (adenosine 3)	A1 (EC50 values as a ratio of that of NECA) (adenosine 1)
CCc1nc([C@H]2O[C@@H](n3cnc4c(NCC(c5ccccc5)c5ccccc5)nc(NCCN5CCOCC5)nc43)[C@H](O)[C@@H]2O)no1.O=CO [Example 15, (2R,3R,4S,5R)-2-[6-(2,2-Diphenyl-ethylamino)-2-(2-morpholin-4-yl-ethylamino)-purin-9-yl]-5-(5-ethyl-[1,2,4]oxadiazol-3-yl)-tetrahydro-furan-3,4-diol formate]	13.62	>190	>=8649
CCc1nc([C@H]2O[C@@H](n3cnc4c(NCC(c5ccccc5)c5ccccc5)nc(N[C@H](CO)Cc5ccccc5)nc43)[C@H](O)[C@@H]2O)no1.O=CO [Example 16, (2R,3R,4S,5R)-2-[6-(2,2-Diphenyl-ethylamino)-2-(1S-hydroxymethyl-2-phenyl-ethylamino)-purin-9-yl]-5-(5-ethyl-[1,2,4]oxadiazol-3-yl)-tetrahydro-furan-3,4-diol formate]	5.75	>257	4514.96
Cc1cnc([C@H]2O[C@@H](n3cnc4c(NCCC5CCCCC5)nc(N[C@H](CO)Cc5ccccc5)nc43)[C@H](O)[C@@H]2O)o1.O=CO [Example 17, (2R,3R,4S,5S)-2-[6-(2-Cyclohexyl-ethylamino)-2-(1S-hydroxymethyl-2-phenyl-ethylamino)-purin-9-yl]-5-(5-methyl-oxazol-2-yl)-tetrahydro-furan-3,4-diol formate]	5.45	>518	538
Cc1cnc([C@H]2O[C@@H](n3cnc4c(NCC(c5ccccc5)c5ccccc5)nc(N[C@@H]5CCNC5)nc43)[C@H](O)[C@@H]2O)o1.O=CO.O=CO [Example 18, (2R,3R,4S,5S)-2-[6-(2,2-Diphenyl-ethlyamino)-2-(pyrrolidin-3R-ylamino)-purin-9-yl]-5-(5-methyl-oxazol-2-yl)-tetrahydro-furan-3,4-diol diformate]	18.9	>223	5515
Cc1nnc([C@H]2O[C@@H](n3cnc4c(NCC(c5ccccc5)c5ccccc5)nc(NCCc5cn(C)cn5)nc43)[C@H](O)[C@@H]2O)s1.O=CO.O=CO [Example 19, (2R,3R,4S,5S)-2-{6-(2,2-Diphenyl-ethylamino)-2-[2-(1-methyl-1H-imidazol-4-yl)-ethylamino]-purin-9-yl}-5-(5-methyl-[1,3,4]thiadiazol-2-yl)-tetrahydro-furan-3,4-diol diformate]	4.05	>293	3172
Cc1nnc([C@H]2O[C@@H](n3cnc4c(NCC(c5ccccc5)c5ccccc5)nc(N[C@H](CO)Cc5ccccc5)nc43)[C@H](O)[C@@H]2O)s1.O=CO [Example 20, (2R,3R,4S,5S)-2-[6-(2,2-Diphenyl-ethylamino)-2-(1S-hydroxymethyl-2-phenyl-ethylamino)-purin-9-yl]-5-(5-methyl-[1,3,4]thiadiazol-2-yl)-tetrahydro-furan-3,4-diol formate]	17.7	>470	2625
CCc1nnc([C@H]2O[C@@H](n3cnc4c(NCC(c5ccccc5)c5ccccc5)nc(N[C@H](CO)Cc5ccccc5)nc43)[C@H](O)[C@@H]2O)o1.O=CO [Example 21, (2R,3R,4S,5S)-2-[6-(2,2-Diphenyl-ethylamino)-2-(1S-hydroxymethyl-2-phenyl-ethylamino)-purin-9-yl]-5-(5-ethyl-[1,3,4]oxadiazol-2-yl)-tetrahydro-furan-3,4-diol formate]	3.04	>173	568.06
CCc1nnc([C@H]2O[C@@H](n3cnc4c(NCC(c5ccccc5)c5ccccc5)nc(NCCN5CCCCC5)nc43)[C@H](O)[C@@H]2O)o1.O=CO [Example 22, (2R,3R,4S,5S)-2-[6-(2,2-Diphenyl-ethylamino)-2-(2-piperidin-1-yl-ethylamino)-purin-9-yl]-5-(5-ethyl-[1,3,4]oxadiazol-2-yl)-tetrahydro-furan-3,4-diol formate]	12.28	>180	101.96
CCc1nnc([C@H]2O[C@@H](n3cnc4c(NCC(c5ccccc5)c5ccccc5)nc(NCCN5CCOCC5)nc43)[C@H](O)[C@@H]2O)o1.O=CO [Example 23, (2R,3R,4S,5S)-2-[6-(2,2-Diphenyl-ethylamino)-2-(2-morpholin-4-yl-ethylamino)-purin-9-yl]-5-(5-ethyl-[1,3,4]oxadiazol-2-yl)-tetrahydro-furan-3,4-diol formate]	6.16	>180	101.96
CCc1nnc([C@H]2O[C@@H](n3cnc4c(NCC(c5ccccc5)c5ccccc5)nc(NCCc5ccccn5)nc43)[C@H](O)[C@@H]2O)o1.O=CO [Example 24, (2R,3R,4S,5S)-2-[6-(2,2-Diphenyl-ethylamino)-2-(2-pyridin-2-yl-ethylamino)-purin-9-yl]-5-(5-ethyl-[1,3,4]oxadiazol-2-yl)-tetrahydro-furan-3,4-diol formate]	6.04	>175	390.97
CCc1nnc([C@H]2O[C@@H](n3cnc4c(NCC(c5ccccc5)c5ccccc5)nc(N[C@H]5CC[C@H](N)CC5)nc43)[C@H](O)[C@@H]2O)o1.O=CO [Example 25, (2R,3R,4S,5S)-2-[2-(trans-4-Amino-cyclohexylamino)-6-(2,2-diphenyl-ethylamino)-purin-9-yl]-5-(5-ethyl-[1,3,4]oxadiazol-2-yl)-tetrahydro-furan-3,4-diol formate]	4.81	>136	398.28
CCc1nnc([C@H]2O[C@@H](n3cnc4c(NCC(c5ccccc5)c5ccccc5)nc(N[C@@H]5CCNC5)nc43)[C@H](O)[C@@H]2O)o1.O=CO [Example 26, (2R,3R,4S,5S)-2-[6-(2,2-Diphenyl-ethylamino)-2-(pyrrolidin-3R-ylamino)-purin-9-yl]-5-(5-ethyl-[1,3,4]oxadiazol-2-yl)-tetrahydro-furan-3,4-diol formate]	5.57	>162	432
CCc1nnc([C@H]2O[C@@H](n3cnc4c(NCC(c5ccccc5)c5ccccc5)nc(NCCc5ccccn5)nc43)[C@H](O)[C@@H]2O)[nH]1.O=CO [Example 27, (2R,3R,4S,5R)-2-[6-(2,2-Diphenyl-ethylamino)-2-(2-pyridin-2-yl-ethylamino)-purin-9-yl]-5-(5-ethyl-4H-[1,2,4]triazol-3-yl)-tetrahydro-furan-3,4-diol formate]	21.8	>183	135.9
CCc1nc([C@H]2O[C@@H](n3cnc4c(NCC(c5ccccc5)c5ccccc5)nc(NCCNC(=N)N)nc43)[C@H](O)[C@@H]2O)no1.O=CO.O=CO [Example 29, N-(2-{6-(2,2-Diphenyl-ethylamino)-9-[5R-(5-ethyl-[1,2,4]oxadiazol-3-yl)-3R,4S-dihydroxy-tetrahydro-furan-2R-yl]-9H-purin-2-ylamino}-ethyl)-guanidine diformate]	30.7	>284	>2147
CCn1cnc(C2OC(n3cnc4c(NCC(c5ccccc5)c5ccccc5)nc(NC5CCC(N)CC5)nc43)C(O)C2O)n1.O=CO.O=CO [Example 30, (2R,3R,4S,5R)-2-[2-(trans-4-Amino-cyclohexylamino)-6-(2,2-diphenyl-ethylamino)-purin-9-yl]-5-(1-ethyl-1H-[1,2,4]triazol-3-yl)-tetrahydro-furan-3,4-diol diformate]	13.27	>206	2948.1
